We go through 13 compounds from PubChem BioAssay AID180 (DTP/NCI, 2004).

The experiment relates to BDF1 mice, Adenocarcinoma 755 s.c., tumor weight T/C. Briefly: NCI In Vivo Anticancer Drug Screen. Data for tumor model Adenocarcinoma 755 (subcutaneous) in B6D2F1 (BDF1) mice. To be noted: endpoint: mean tumor weight, higher = larger tumour. In outline: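 Readout: T/C, i.e. treated-group measurement over vehicle-control measurement. Endpoint is survival or tumor size in tumor-bearing mice given compound.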

Setting [1] is: dose: 25.0 mg/kg/injection, schedule: Q01DX011 (ip), vehicle: carboxymethylcellulose (CMC).
Setting [2] is: dose: 50.0 mg/kg/injection, schedule: Q01DX011 (ip), vehicle: carboxymethylcellulose (CMC).
Setting [3] is: dose: 100.0 mg/kg/injection, schedule: Q01DX011 (ip), vehicle: carboxymethylcellulose (CMC).
Where [4] appears, read: dose: 200.0 mg/kg/injection, schedule: Q01DX011 (ip), vehicle: carboxymethylcellulose (CMC).
Where [5] appears, read: dose: 17.5 mg/kg/injection, schedule: Q01DX011 (ip), vehicle: other.
[6] abbreviates: dose: 35.0 mg/kg/injection, schedule: Q01DX011 (ip), vehicle: other.
Where [7] appears, read: dose: 70.0 mg/kg/injection, schedule: Q01DX011 (ip), vehicle: other.
The mark [8] stands for this setting: dose: 140.0 mg/kg/injection, schedule: Q01DX011 (ip), vehicle: other.

“And” between values parts separate entries of the source, which are not always exact repeats. Identical values can stand only once.

For `CCOc1ccccc1C(=O)Nc1ccc(Br)cc1`, the T/C (usually the result in the treated group divided by that in the control group, in per cent) is, setting by setting: (dose: 12.0 mg/kg/injection, schedule: Q01DX011 (ip), vehicle: carboxymethylcellulose (CMC)) 66 % of control; under setting [1], 45 % of control; under setting [2], 40 % of control; under setting [3], 28 % of control and 50 % of control; under setting [4], 17 % of control and 23 % of control; (dose: 400.0 mg/kg/injection, schedule: Q01DX011 (ip), vehicle: carboxymethylcellulose (CMC)) 7 % of control and 32 % of control. Besides, the T/C reads like this: (dose: 400.0 mg/kg/injection, schedule: Q01DX011 (ip), vehicle: saline) 32 % of control; (dose: 700.0 mg/kg/injection, schedule: Q01DX011 (ip), vehicle: carboxymethylcellulose (CMC)) 22 % of control; (dose: 800.0 mg/kg/injection, schedule: Q01DX011 (ip), vehicle: carboxymethylcellulose (CMC)) 42 % of control; (dose: 800.0 mg/kg/injection, schedule: Q01DX011 (ip), vehicle: saline) 21 % of control.

Turning to `CCOC(C)C(/C=N/NC(N)=S)=NNC(N)=S` (centres undefined), the T/C by setting is: (dose: 15.0 mg/kg/injection, schedule: Q01DX011 (ip), vehicle: saline) 49 % of control; (dose: 30.0 mg/kg/injection, schedule: Q01DX011 (ip), vehicle: saline) 109 % of control; (dose: 60.0 mg/kg/injection, schedule: Q01DX011 (ip), vehicle: saline) 117 % of control; (dose: 120.0 mg/kg/injection, schedule: Q01DX011 (ip), vehicle: saline) 71 % of control.

With `CCC1CN1P(=O)(Oc1cccc2ccccc12)N1CC1CC` (centres undefined), the T/C (dose: 88.0 mg/kg/injection, schedule: Q01DX011 (ip), vehicle: carboxymethylcellulose (CMC)) is 42 % of control; the T/C (dose: 88.0 mg/kg/injection, schedule: Q01DX011 (ip), vehicle: methylcellulose (MC)) was 80 % of control; the T/C (dose: 175.0 mg/kg/injection, schedule: Q01DX011 (ip), vehicle: methylcellulose (MC)) is 92 % of control; the T/C (dose: 350.0 mg/kg/injection, schedule: Q01DX011 (ip), vehicle: methylcellulose (MC)) was 59 % of control.

As to `O=c1ccn(C2OC(CO)C(O)C2O)c(=O)[nH]1` (centres undefined), the T/C by setting is: under setting [5], 57 % of control; under setting [6], 39 % of control; (dose: 35.0 mg/kg/injection, schedule: Q01DX011 (ip), vehicle: saline) 30 % of control; under setting [7], 105 % of control; (dose: 70.0 mg/kg/injection, schedule: Q01DX011 (ip), vehicle: saline) 75 % of control; under setting [8], 82 % of control. Also, the T/C was 32 % of control (dose: 140.0 mg/kg/injection, schedule: Q01DX011 (ip), vehicle: saline); 56 % of control (dose: 280.0 mg/kg/injection, schedule: Q01DX011 (ip), vehicle: other); 42 % of control (dose: 280.0 mg/kg/injection, schedule: Q01DX011 (ip), vehicle: saline).

As for `Cn1c(=O)c2[nH]c(N/N=C/c3ccc(F)cc3)nc2n(C)c1=O`, the T/C (dose: 30.0 mg/kg/injection, schedule: Q01DX011 (ip), vehicle: carboxymethylcellulose (CMC)) was 93 % of control; the T/C (dose: 60.0 mg/kg/injection, schedule: Q01DX011 (ip), vehicle: carboxymethylcellulose (CMC)) was 91 % of control; the T/C (dose: 120.0 mg/kg/injection, schedule: Q01DX011 (ip), vehicle: carboxymethylcellulose (CMC)) is 114 % of control.

Turning to `CCn1cnc2c(SC(C)C)ncnc21`, the T/C runs as follows: (dose: 16.0 mg/kg/injection, schedule: Q01DX011 (ip), vehicle: carboxymethylcellulose (CMC)) 42 % of control; (dose: 31.0 mg/kg/injection, schedule: Q01DX011 (ip), vehicle: carboxymethylcellulose (CMC)) 4 % of control.

On to `CCCCn1cnc2c(SC3CCCC3)ncnc21`, for which the T/C was 38 % of control under setting [1], 13 % of control under setting [2], 4 % of control under setting [3] and 3 % of control under setting [4].

`CC(=O)OCC(=O)[C@@]1(O)CC[C@H]2[C@@H]3CCC4=CC(=O)C=C[C@]4(C)[C@@]3(F)[C@@H](O)C[C@@]21C`: the T/C reads like this: (dose: 0.07 mg/kg/injection, schedule: Q01DX011 (sc), vehicle: steriod suspending solution) 90 % of control; (dose: 0.14 mg/kg/injection, schedule: Q01DX011 (sc), vehicle: steriod suspending solution) 77 % of control; (dose: 0.28 mg/kg/injection, schedule: Q01DX011 (sc), vehicle: steriod suspending solution) 41 % of control; (dose: 1.12 mg/kg/injection, schedule: Q01DX011 (sc), vehicle: steriod suspending solution) 54 % of control; (dose: 2.25 mg/kg/injection, schedule: Q01DX011 (sc), vehicle: steriod suspending solution) 38 % of control; (dose: 4.5 mg/kg/injection, schedule: Q01DX011 (sc), vehicle: steriod suspending solution) 26 % of control and 38 % of control. Moreover, the T/C (dose: 9.0 mg/kg/injection, schedule: Q01DX011 (sc), vehicle: steriod suspending solution) is 21 % of control; the T/C (dose: 18.0 mg/kg/injection, schedule: Q01DX011 (sc), vehicle: steriod suspending solution) was 17 % of control; the T/C (dose: 24.0 mg/kg/injection, schedule: Q01DX011 (sc), vehicle: steriod suspending solution) was 9 % of control and 23 % of control; the T/C (dose: 25.0 mg/kg/injection, schedule: Q01DX011 (sc), vehicle: steriod suspending solution) was 23 % of control and 28 % of control; the T/C (dose: 36.0 mg/kg/injection, schedule: Q01DX011 (sc), vehicle: steriod suspending solution) was 11 % of control; the T/C (dose: 50.0 mg/kg/injection, schedule: Q01DX011 (sc), vehicle: steriod suspending solution) was 13 % of control and 24 % of control. The T/C (dose: 100.0 mg/kg/injection, schedule: Q01DX011 (sc), vehicle: steriod suspending solution) was 9 % of control and 11 % of control.

For the compound `CN(CC#N)/N=N/c1nc[nH]c1C(N)=O`, the T/C (dose: 37.0 mg/kg/injection, schedule: Q01DX011 (ip), vehicle: carboxymethylcellulose (CMC)) is 108 % of control and the T/C (dose: 75.0 mg/kg/injection, schedule: Q01DX011 (ip), vehicle: carboxymethylcellulose (CMC)) is 73 % of control.

Turning to `COC(=O)c1[nH]c(=O)[nH]c(=O)c1F`, the T/C reads like this: (dose: 3.0 mg/kg/injection, schedule: Q01DX011 (ip), vehicle: methylcellulose (MC)) 72 % of control; (dose: 6.0 mg/kg/injection, schedule: Q01DX011 (ip), vehicle: methylcellulose (MC)) 63 % of control; (dose: 12.0 mg/kg/injection, schedule: Q01DX011 (ip), vehicle: methylcellulose (MC)) 91 % of control.

As to `NCC(N)=O`, the T/C is, setting by setting: (dose: 100.0 mg/kg/injection, schedule: Q01DX011 (ip), vehicle: other) 86 % of control; (dose: 200.0 mg/kg/injection, schedule: Q01DX011 (ip), vehicle: other) 79 % of control; (dose: 400.0 mg/kg/injection, schedule: Q01DX011 (ip), vehicle: other) 56 % of control.

On to `NC(=O)c1ccc(NC(=O)CCC(=O)Nc2ccc(C(N)=O)cn2)nc1`, for which the T/C was 83 % of control (dose: 0.25 mg/kg/injection, schedule: Q01DX011 (ip), vehicle: carboxymethylcellulose (CMC)); 93 % of control (dose: 0.5 mg/kg/injection, schedule: Q01DX011 (ip), vehicle: carboxymethylcellulose (CMC)); 80 % of control (dose: 1.0 mg/kg/injection, schedule: Q01DX011 (ip), vehicle: carboxymethylcellulose (CMC)); 33 % of control (dose: 2.0 mg/kg/injection, schedule: Q01DX011 (ip), vehicle: carboxymethylcellulose (CMC)); 16 % of control (dose: 2.5 mg/kg/injection, schedule: Q01DX011 (ip), vehicle: carboxymethylcellulose (CMC)); 7 % of control (dose: 5.0 mg/kg/injection, schedule: Q01DX011 (ip), vehicle: carboxymethylcellulose (CMC)).

As to `CN(C)N=Nc1ccc(-c2ccc(N=NN(C)C)cc2)cc1`, the T/C is 92 % of control under setting [5]; 56 % of control (dose: 31.2 mg/kg/injection, schedule: Q01DX011 (ip), vehicle: other); 72 % of control under setting [6]; 70 % of control (dose: 50.0 mg/kg/injection, schedule: Q01DX011 (ip), vehicle: water); 46 % of control (dose: 62.5 mg/kg/injection, schedule: Q01DX011 (ip), vehicle: other); 75 % of control under setting [7]. In addition, the T/C runs as follows: (dose: 100.0 mg/kg/injection, schedule: Q01DX011 (ip), vehicle: water) 39 % of control; (dose: 125.0 mg/kg/injection, schedule: Q01DX011 (ip), vehicle: other) 32 % of control; under setting [8], 40 % of control; (dose: 150.0 mg/kg/injection, schedule: Q01DX011 (ip), vehicle: water) 46 % of control; (dose: 200.0 mg/kg/injection, schedule: Q01DX011 (ip), vehicle: water) 61 % of control.
